Reference: patent US6962931B2, “Self-emulsifying formulations of cholesteryl ester transfer protein inhibitors” (Pfizer Inc., priority 2001, dated 2005)
Where two headings read alike, the source gives them in different places.

Key:
[1] = Emulsion from oil solution plus equal volume of water: particle size and stability; type: physicochemical
Protocol: An emulsion was prepared by combining 1 volume of oil solution with an equal volume of de-ionized water. […] The emulsion is then stirred continuously to maintain homogeneity.
An emulsion was prepared by combining 1 volume of oil solution with an equal volume of de-ionized water. This mixture was stirred for 10 minutes and then vortex mixed for 2 minutes. […] It was stirred continuously to maintain homogeneity.
An emulsion was prepared by combining combining 1 volume of oil solution with an equal volume of de-ionized water. This mixture was stirred for 10 minutes and then vortex mixed for 2 minutes. […] It was stirred continuously to maintain homogeneity.

PK in monkeys = type: in vivo, cynomologous monkeys
Text: Use of an emulsion prepared from crystalline (ethanolate) drug allowed comparible exposures to be achieved to those for more soluble amorphous drug in Miglyol® alone. Excellent dose proportionality was also obtained.

[2] = Microsolubility estimate by repeated addition of vehicle; type: physicochemical; conditions: thermodynamic from solid, read-out: Microsolubility
Protocol: (§1) For CETP inhibitors where quantities were limited, an estimate of solubility was obtained by addition of vehicle to a known quantity of the compound and mixing in an ultrasonicator bath for 90 minutes, followed by overnight equilibration at ambient temperature. Addition of vehicle was repeated until a solution was achieved.
as §1, with “limited or the samples were amorphous solids,” for “limited,”, “achieved. From the total volume of vehicle added to solubilize the CETP inhibitor compound, the solubility value, or so-called microsolubility, was calculated by the equation: Weight of sample (mgA)/vehicle volume (mL)=Microsolubility (mgA/mL)” for “achieved.”

[3] = PK in rat, oils or preformed emulsions by oral gavage; parameters: species or system Sprague Dawley rats; conditions: Sprague-Dawley, in vivo
Text: Emulsions prepared from olive oil/surfactant provided the best results.

## CCOC(=O)N1c2ccc(C(F)(F)F)cc2[C@@H](N(Cc2cc(C(F)(F)F)cc(C(F)(F)F)c2)C(=O)OC)C[C@H]1CC [Compound A, [2R,4S] 4-[(3,5-bis-trifluoromethyl-benzyl)-methoxycarbonyl-amino]-2-ethyl-6-trifluoromethyl-3,4-dihydro-2H-quinoline-1-carboxylic acid ethyl ester]
[1]; Example 17 oil after storage for 8 days or emulsion after 24 hr
  chemical degradation or crystallization: No chemical degradation based on HPLC analysis or crystallization based on microscopic examination was detected
[1]; Example 17 oil solution (Miglyol 812/propylene carbonate/Cremophor EL, 115 mg/g) plus equal volume water
  average particle size of emulsion: less than 10 microns
[1]; Example 18 oil after storage for 8 days or emulsion after 24 hr
  chemical degradation or crystallization: No chemical degradation based on HPLC analysis or crystallization based on microscopic examination was detected
[1]; Example 18 oil solution (olive oil/Cremophor EL, 13 mg/g) plus equal volume water
  average particle size of emulsion: less than 10 microns
PK in monkeys; crystalline ethanolate, Olive oil/Cremophor/water 40/10/50, 20 mg/kg, 20 mg/kg
  Cmax: 160 ng/mL
PK in monkeys; monkey, in vivo, oral, 20 mg/kg, crystalline ethanolate, Olive oil/Cremophor/water 40/10/50, 20 mg/kg, read-out: Cmax
  Cmax: 100 ng/mL
PK in monkeys; monkey, in vivo, oral, 50 mg/kg, crystalline ethanolate, Miglyol/Cremophor/water 40/10/50, 50 mg/kg (BID)
  AUC: 13000 to 15000 ng·h/mL
PK in monkeys; monkey, in vivo, oral, 50 mg/kg, crystalline ethanolate, Miglyol/Cremophor/water 40/10/50, 50 mg/kg (BID), read-out: Cmax
  Cmax: 800 to 1100 ng/mL
PK in monkeys; monkey, in vivo, oral, 100 mg/kg, amorphous anhydrous, Miglyol
  AUC: ~29000 ng·h/mL
PK in monkeys; monkey, in vivo, oral, 100 mg/kg, amorphous anhydrous, Miglyol, 100 mg/kg, read-out: Cmax
  Cmax: ~1600 ng/mL
PK in monkeys; monkey, in vivo, oral, 100 mg/kg, crystalline ethanolate, Miglyol, 100 mg/kg, read-out: Cmax
  Cmax: ~170 ng/mL
PK in monkeys; monkey, in vivo, oral, 100 mg/kg, crystalline ethanolate, Miglyol/Cremophor/water 40/10/50, 100 mg/kg (BID)
  AUC: 24000 to 29000 ng·h/mL
PK in monkeys; monkey, in vivo, oral, 100 mg/kg, crystalline ethanolate, Miglyol/Cremophor/water 40/10/50, 100 mg/kg (BID), read-out: Cmax
  Cmax: 1600 to 2300 ng/mL
PK in monkeys; monkey, in vivo, oral, 100 mg/kg, crystalline ethanolate, Miglyol/Cremophor/water 40/10/50, 100 mg/kg, read-out: Cmax
  Cmax: 400 to 1800 ng/mL
[2]; Capmul MCM, oil or lipid
  Solubility: > 300 mg/mL
[2]; Cotton oil, oil or lipid
  Solubility: < 75 mg/mL
[2]; Crodamol GTCC, oil or lipid
  Solubility: < 75 mg/mL
[2]; Glycerin, organic solvent or mixture
  Solubility: < 75 mg/mL
[2]; Incromega TG2671, oil or lipid
  Solubility: < 75 mg/mL
[2]; Linoleic acid, oil or lipid
  Solubility: < 60 mg/mL
[2]; Miglyol 810, oil or lipid
  Solubility: < 100 mg/mL
[2]; Miglyol 812, oil or lipid
  Solubility: > 300 mg/mL
[2]; Olive oil, oil or lipid
  Solubility: > 300 mg/mL
[2]; Safflower oil, oil or lipid
  Solubility: > 300 mg/mL
[2]; mineral oil, oil or lipid
  Solubility: < 75 mg/mL
[2]; oil or lipid
  Solubility: < 75 mg/mL
[2]; propylene glycol, organic solvent or mixture
  Solubility: < 75 mg/mL
[3]; 100 mg/kg, crystalline ethanolate, Miglyol/Cremophor/0.5% HPMCAS 40/10/50, 100 mg/kg
  Cmax: 1600 ng/mL
[3]; 100 mg/kg, crystalline ethanolate, Miglyol/Cremophor/0.5% HPMCAS 40/10/50, 100 mg/kg, Tlast = 24 hr
  AUC(0-t): 15000 ng·h/mL
[3]; 100 mg/kg, crystalline ethanolate, Miglyol/Cremophor/water 40/10/50, 100 mg/kg, Tlast = 24 hr
  AUC(0-t): 23000 ng·h/mL
[3]; 100 mg/kg, crystalline ethanolate, Miglyol/Cremophor/water 40/10/50, 100 mg/kg, conc. in oil 100 mg/mL
  Cmax: 1900 ng/mL
[3]; 100 mg/kg, crystalline ethanolate, Olive oil/Cremophor 80/20, 100 mg/kg
  Cmax: 3600 ng/mL
[3]; 100 mg/kg, crystalline ethanolate, Olive oil/Cremophor 80/20, 100 mg/kg, Tlast = 24 hr
  AUC(0-t): 45000 ng·h/mL
[3]; 100 mg/kg, crystalline ethanolate, Olive oil/Cremophor/water 40/10/50, 100 mg/kg, Tlast = 9 hr
  AUC(0-t): 33000 ng·h/mL
[3]; 100 mg/kg, crystalline ethanolate, Olive oil/Cremophor/water 40/10/50, 100 mg/kg, conc. in oil 20 mg/mL
  Cmax: 6200 ng/mL
[3]; 300 mg/kg, amorphous anhydrous, Olive oil
  Cmax: 7300 ng/mL
[3]; 300 mg/kg, amorphous anhydrous, Olive oil, Tlast = 24 hr
  AUC(0-t): 50000 ng·h/mL
[3]; 375 mg/kg, crystalline ethanolate, Olive oil/caprylic acid/Cremophor/water 10/30/10/50, 375 mg/kg
  Cmax: 4100 ng/mL
[3]; 375 mg/kg, crystalline ethanolate, Olive oil/caprylic acid/Cremophor/water 10/30/10/50, 375 mg/kg, Tlast = 9 hr
  AUC(0-t): 21000 ng·h/mL
[3]; 500 mg/kg, crystalline ethanolate, Miglyol
  Cmax: 2100 ng/mL
[3]; 500 mg/kg, crystalline ethanolate, Miglyol, Tlast = 24 hr
  AUC(0-t): 27000 ng·h/mL
[3]; 500 mg/kg, crystalline ethanolate, Miglyol/Cremophor/water 40/10/50, 500 mg/kg, Tlast = 9 hr
  AUC(0-t): 18000 ng·h/mL
[3]; 500 mg/kg, crystalline ethanolate, Miglyol/Cremophor/water 40/10/50, 500 mg/kg, conc. in oil 100 mg/mL
  Cmax: 4600 ng/mL
[3]; 625 mg/kg, crystalline ethanolate, Olive oil/caprylic acid/triacetin/Cremophor/water 10/15/15/10/50, 625 mg/kg
  Cmax: 4800 ng/mL
[3]; 625 mg/kg, crystalline ethanolate, Olive oil/caprylic acid/triacetin/Cremophor/water 10/15/15/10/50, 625 mg/kg, Tlast = 9 hr
  AUC(0-t): 26000 ng·h/mL
